Assay: Stability in Human Liver Microsomes
Type: in vitro ADME
Conditions: pooled human liver microsomes 0.5 mg/mL protein, 1 mM NADPH, 37° C., N=1; for half-life: both sexes
Description: The liver microsomes stability of compounds of Examples 1-4 was compared with that of TOVOK, and the compound of Example 5 with CUDC-101.
The metabolic stability of compounds of the invention was tested using pooled liver microsomes prepared from mixed-gender humans, with 1 mM NADPH. The samples were analyzed using an LTQ-Orbitrap XL mass spectrometer. HRMS was used to determine the peak area response ratio (peak area corresponding to test compound or control divided by that of an analytical internal standard) without running a standard curve. HRMS scan was performed in an appropriate m/z range in order to detect all plausible metabolites
The assay was run with a single incubation (N=1). Incubated test compounds at 37° C. in buffer containing 0.5 mg/mL microsomal protein. Initiated the reaction by adding cofactors, sampling at 0, 10, 20, 30, and 60 minutes, Incubated positive control (5 μM testosterone) in parallel and sampling at 0, 10, and 30 minutes.
The control compound testosterone was run in parallel to verify the enzymatic activity of the microsomes. After the final time point, fluorimetry was used to confirm the addition of NADPH to the reaction mixture. T1/2 of control met the internal acceptance criteria.
• Liquid Chromatography • Column: Thermo BDS Hypersil C18 30×2.0 mm, 3 μm, with guard column • M.P. Buffer: 25 mM ammonium formate buffer, pH 3.5 • Aqueous Reservoir (A): 90% water, 10% buffer • Organic Reservoir (B): 90% acetonitrile, 10% buffer • Flow Rate: 300 μL/minute • Gradient Program:
• Total Run Time: 3.5 minutes • Autosampler: 10 μL Injection Volume • Autosampler Wash: water/methanol/2-propanol: 1/1/1; with 0.2% formic acid • Mass Spectrometer • Instrument: PE SCIEX API 3000 • Interface: Turbo Ionspray • Mode: Multiple Reaction Monitoring • Method: 3.5 minute duration

| SMILES | half-life | Percentage remaining 0 min | Percentage remaining 10 min | Percentage remaining 20 min | Percentage remaining 30 min | Percentage remaining 60 min | Half life |
| --- | --- | --- | --- | --- | --- | --- | --- |
| C#Cc1cccc(Nc2ncnc3cc(OC)c(OCCCCCCC(=O)NO)cc23)c1 [CUDC-101, reference compound] | 0.333 h | 100% | 74% | 48% | 35% | 14% | – |
| [2H]C([2H])([2H])N(C/C=C/C(=O)Nc1cc2c(Nc3ccc(F)c(Cl)c3)ncnc2cc1O[C@H]1CCOC1)C([2H])([2H])[2H] [Example 1, (S,E)-N-(4-(3-chloro-4-fluorophenylamino)-7-(tetrahydrofuran-3-yloxy)quinazolin-6-yl)-4-(D6-dimethylamino)but-2-enamide] | – | 100% | 97% | 90% | 85% | 75% | >1 h |
| [2H]C([2H])([2H])N(C/C=C/C(=O)Nc1cc2c(Nc3cccc(C#C)c3)ncnc2cc1O[C@H]1CCOC1)C([2H])([2H])[2H] [Example 2, (S,E)-4-(D6-dimethylamino)-N-(4-(3-ethynylphenylamino)-7-(tetrahydrofuran-3-yloxy)quinazolin-6-yl)but-2-enamide] | – | 100% | 95% | 87% | 80% | 67% | >1 h |
| [2H]C1(Oc2cc3ncnc(Nc4ccc(F)c(Cl)c4)c3cc2NC(=O)/C=C/CN(C)C)CCOC1 (stereo not drawn) [Example 3, (E)-N-(4-(3-chloro-4-fluorophenylamino)-7-((3-D)-tetrahydrofuran-3-yloxy)quinazolin-6-yl)-4-(dimethylamino)but-2-enamide] | – | 100% | 97% | 89% | 84% | 73% | >1 h |
| [2H]C1(Oc2cc3ncnc(Nc4cccc(C#C)c4)c3cc2NC(=O)/C=C/CN(C)C)CCOC1 [Example 4, (E)-4-(dimethylamino)-N-(4-(3-ethynylphenylamino)-7-(3-D-tetrahydrofuran-3-yloxy)quinazolin-6-yl)but-2-enamide] | – | 100% | 94% | 87% | 79% | 70% | >1 h |
| [2H]C([2H])([2H])Oc1cc2ncnc(Nc3cccc(C#C)c3)c2cc1OCCCCCCC(=O)NO [Example 5, 7-(4-(3-ethynylphenylamino)-7-(D3-methoxy)quinazolin-6-yloxy)-N-hydroxyheptanamide] | 0.467 h | 100% | 85% | 68% | 48% | 25% | – |
| CN(C)C/C=C/C(=O)Nc1cc2c(Nc3ccc(F)c(Cl)c3)ncnc2cc1O[C@H]1CCOC1 [TOVOK, reference compound] | > 1 h | 100% | 95% | 85% | 75% | 60% | – |

Source: patent US8735409B2, “Quinazoline derivatives” (priority 2009, dated 2014)
